In data set [1] the test system is ribonucleases present in rat plasma. The experiment in a line: Stability of siRNA in rat plasma (PAGE gel, densitometry). It counts as in vitro ADME. Conditions: for level of degradation on PAGE gel after treatment with plasma: fresh rat plasma, 37° C., time points 0, 30, 60 and 20 min; for Stability Ranking: rat plasma 37° C. The protocol:
At various time points (0, 30, 60 and 20 min), 50 μ*l of the mixture was taken out and immediately extracted by phenol:chloroform. SiRNAs were dried following precipitation by adding 2.5 volume of isopropanol alcohol and subsequent washing step with 70% ethanol. After dissolving in water and gel loading buffer the samples were analyzed on 20% polyacrylamide gel, containing 7 M urea and visualized by ethidium bromide staining and quantitated by densitometry.
The purpose of this experiment was to determine whether 2′-O-methyl modified ribonucleotides and the substitution of uridines with ribothymidines (5-methyluridine) provide for greater siRNA stability against rat plasma ribonucleases.
At various time points (0, 30, 60 and 20 min), 50 μl of the mixture was taken out and immediately extracted by phenol:chloroform. siRNAs were dried following precipitation by adding 2.5 volume of isopropanol alcohol and subsequent washing step with 70% ethanol. After resuspending in water and gel loading buffer the samples were analyzed gel electrophoresis on a 20% polyacrylamide gel, containing 7 M urea and subsequently visualized by ethidium bromide staining and quantified by densitometry.

A short description of data set [2]: Thermal melting profiles (Tm) of β-gal siRNA duplexes. Conditions: for Avg. Tm from 1st Exp. / Tm: 1st experiment; for Avg. Tm from 2nd Exp.: 2nd (duplicate) experiment; for melts at a temperature of: text summary of Table 7; for melting temperature higher than the wild type (duplex I): versus duplex I. It counts as physicochemical. The source says:
The purpose of this experiment was to determine the effect of incorporating ribothymidines in a double stranded RNA molecule in place of uridines on the melting temperature (TM) of the siRNA molecule. A higher Tm correlates with increased siRNA duplex stability.
To determine the effect of replacing uridines with ribothymidines in the siRNA duplex upon melting temperature, thermal melting profiles were generated for four β-galactosidase (β-gal) siRNA molecules (table 5). These four β-gal siRNA duplexes differ only by the presence or absence of ribothymidines in the siRNA duplex. Where rT is 5-methyluridine.
The stock solutions of single stranded oligonucleotides were prepared by dissolving the selected sequences in 400 μL 10 mM buffer phosphate pH 7.0 containing 0.1 M NaCl and 0.1 mM EDTA and diluted (1 μL to 200 μL) with water and absorbencies (A260) were measured and the contents were calculated. Also the integrity of the oligonucleotides was confirmed by HPLC analysis. To prepare the siRNA duplexes, the single stranded oligonucleotides were mixed and allowed to anneal. The UV absorption (A260) for each siRNA duplex was measured and their value are as follows: I (0.28), II (0.54), III (0.31), and IV (0.45). To test for reproducibility, the melting profile study was done in duplicate.
The thermal melting profiles of the duplexes I, II, III and IV were recorded on Shimadzu UV-VIS 1601 with thermoelectrically temperature controlled through the Peltier device. The temperature was changed at the rate of 0.5° C./minute from 90° C. to 25° C. while the absorption recorded at 260 nm. The reverse experiment is also repeated. The “melting” process is a physical phenomenon. Therefore, the generated profile (90° to 25°) ought to be superimposed on the reverse ([…] to 90°).
Differential curves were used to determine the melting point (Tm) of the duplexes. The shape of the curve defined by the derivative of a curve (versus 1/T) was used to make a robust determination of Tm and other thermodynamic data. Shimadzu TMSPC-8 and its associated software performed the needed calculations.

Data set [3] concerns interferon response. As to the kind of experiment: Interferon response in vitro. The format is cell-based. The procedure:
Interferon responsiveness is a potential side-effect of tranfecting cells with siRNAs. Thus, a study was performed in vitro to assess whether various isoforms of the LC20 siRNA would elicit an interferon response. Both unmodified and modified of the 19-mer LC20 siRNA and 21-mer LC20 siRNA were tested.

One may read the Tm as the temperature at the midpoint of the melting transition. In the case of “I (WT): unmodified β-gal siRNA: CUACACAAAUCAGCGAUUU TT / TT GAUGUGUUUAGUCGCUAAA (sense CUACACAAAUCAGCGAUUUTT; antisense TTGAUGUGUUUAGUCGCUAAA; chemistry not fully specified; one strand is listed 3' to 5') [reference compound]”, the “level of degradation on PAGE gel after treatment with plasma” value (shortened to “level of degradation on PAGE gel”) in data set [1] is listed as “begins to degrade almost immediately”. Moreover, in data set [2], the “Avg. Tm from 1st Exp.” value stood at 64.9 °C and the “Avg. Tm from 2nd Exp.” value was found to be 64.9 °C. For the same substance, in data set [2] (Down profile), the Tm stood at 65.6 °C. In data set [2] (Up profile), the Tm turned out to be 64.3 °C.

In the case of “II: β-gal siRNA, all uracils in both strands changed to ribothymidine (SEQ ID NO:1/2) (chain 1 CNACACAAANCAGCGANNNTT; chain 2 AAANCGCNGANNNGNGNAGTT; RNA at 1, 2, 3, 4, 5, 6, 7, 8, 9, 10, 11, 12, 13, 14, 15, 16, 17, 18, 19, other sugars, backbone and the base at N not given here; all uracils replaced by ribothymidine in both strands)”, the “level of degradation on PAGE gel” value in data set [1] is listed as “little to no degradation”. Also, in data set [2], the “Avg. Tm from 1st Exp.” value worked out at 72.35 °C, the “Avg. Tm from 2nd Exp.” value turned out to be 72.25 °C, the “melts at a temperature of” value was “about 72.3 °C” and the “melting temperature higher than the wild type (duplex I)” value is 7.4 °C. The Tm in data set [2] (Down profile) turned out to be 72.8 °C. In data set [2] (Up profile), the Tm was 71.9 °C.

As for “III: β-gal siRNA, rT incorporated in the anti-sense strand only (SEQ ID NO:5/6) (chain 1 CNACACAAANCAGCGANNNTT; chain 2 AAANCGCNGANNNGNGNAGTT; RNA at 1, 2, 3, 4, 5, 6, 7, 8, 9, 10, 11, 12, 13, 14, 15, 16, 17, 18, 19, other sugars, backbone and the base at N not given here; ribothymidine replaces uracil in antisense strand only)”, in data set [2], the “Avg. Tm from 1st Exp.” value was 72.4 °C, the “Avg. Tm from 2nd Exp.” value was found to be 69.8 °C and the “melting temperature higher than the wild type (duplex I)” value was “approximately 4.9 °C”. Moreover, in data set [2] (Down profile), the Tm was 72.9 °C. Moreover, the Tm in data set [2] (Up profile) was found to be 71.9 °C.

Consider “IV: β-gal siRNA, rT incorporated in the sense strand only (SEQ ID NO:3/4) (chain 1 CTACACAAATCAGCGATTTTT; chain 2 AAAUCGCUGAUUUGUGUAGTT; chain 1: RNA at 2, 10, 17, 18, 19, other sugars and backbone not given here; chain 2: RNA at 4, 8, 11, 12, 13, 15, 17, other sugars and backbone not given here; positions 1-19 ribonucleotides, further chemistry not fully specified)”, for which, in data set [1], the “level of degradation on PAGE gel” value is on record as “little to no degradation”. In data set [2], the “Avg. Tm from 1st Exp.” value amounted to 67.8 °C, the “Avg. Tm from 2nd Exp.” value is 67.8 °C, the “melts at a temperature of” value turned out to be 67.8 °C and the “melting temperature higher than the wild type (duplex I)” value amounted to 2.9 °C. The Tm in data set [2] (Down profile) is 67.8 °C. In data set [2] (Up profile), the Tm was found to be 67.8 °C.

Consider “LC20-19mer: No 3′ overhangs and unmodified: 5′-GGGUCGGAACCCAAGCUUA-3′ / 3′-CCCAGCCUUGGGUUCGAAU-p-5′ (siRNA; 5' phosphate on antisense, chemistry not fully specified; one strand is listed 3' to 5')”, for which the “Stability Ranking” value in data set [1] (LC20 siRNAs (Table 3)) was found to be 4. In addition, in data set [3], the interferon response result is “did not elicit an interferon response”.

“LC20-MD23: 5′-GGGT^rCGGAACCCAAGCT^r U^MeOA^MeOdTdT-3′ / 3′-CCCAGCCUUGGGUUCGAAU-p-5′”: in data set [1] (LC20 siRNAs (Table 3)), the “Stability Ranking” value was found to be 3.

“LC20-WT: Unmodified: 5′-GGGUCGGAACCCAAGCUUA dTdT-3′ / 3′-dAdT CCCAGCCUUGGGUUCGAAU-p-5′”: the “Stability Ranking” value in data set [1] (LC13 siRNAs (Table 4)) and in data set [1] (LC20 siRNAs (Table 3)) was 4 in each case. In data set [3], the interferon response result is recorded as “did not elicit an interferon response”.

(Values after US20060122137A1, “5'-methylpyrimidine and 2'-O-methyl ribonucleotide modified double-stranded ribonucleic acid molecules” (Nastech Pharmaceutical Company Inc., priority 2003, published 2006).)
